Results reported in patent US20190327975A1, “AN ANTIMICROBIAL COMPOSITION” (Conopco, Inc., d/b/a UNILEVER, priority 2016, published 2019).

Excerpt: More particularly, silver ion solubility [Ag+], a value given in mol/L may be calculated using the formula: […]

Structure (SMILES): [Cl][Ag] [Silver chloride]
- Silver Ion Solubility [Ag+]: 13 µM
